Values of other authors in US20110212461A1, “PREDICTION OF CARDIOTOXICITY” (priority 2010, published 2011).

Conditions: assessment positive or negative; marketed/external kinase inhibitors; from public literature and internal data

| SMILES | Cardiotoxicity |
| --- | --- |
| COc1cc2c(Nc3ccc(Br)cc3F)ncnc2cc1OCC1CCN(C)CC1 [Zactima] | Positive |
| Cc1nc(Nc2ncc(C(=O)Nc3c(C)cccc3Cl)s2)cc(N2CCN(CCO)CC2)n1 [Sprycel, dasatinib] | Positive |
| CNC(=O)c1cc(Oc2ccc(NC(=O)Nc3ccc(Cl)c(C(F)(F)F)c3)cc2)ccn1 [Nexavar, sorafenib] | Positive |
| C#Cc1cccc(Nc2ncnc3cc(OCCOC)c(OCCOC)cc23)c1 [Tarceva] | Negative |
| CCN(CC)CCNC(=O)c1c(C)[nH]c(/C=C2\C(=O)Nc3ccc(F)cc32)c1C [Sutent, sunitinib] | Positive |
| Cc1cn(-c2cc(NC(=O)c3ccc(C)c(Nc4nccc(-c5cccnc5)n4)c3)cc(C(F)(F)F)c2)cn1 [Nilotinib] | Positive |
| COc1cc2ncnc(Nc3ccc(F)c(Cl)c3)c2cc1OCCCN1CCOCC1 [Iressa] | Negative |
| CS(=O)(=O)CCNCc1ccc(-c2ccc3ncnc(Nc4ccc(OCc5cccc(F)c5)c(Cl)c4)c3c2)o1 [Tykerb] | Negative |
